From paper PMC8880714, “Antimicrobial effect and mechanism of bovine lactoferrin against the potato common scab pathogen Streptomyces scabiei” (PLoS ONE, 2022)
Where two headings read alike, the source gives them in different places. Where no end group is shown, it is not given here.

How the values were obtained:
Streptomyces scabiei S58 = test: microbe, parasite or virus in culture; type: cell-based
Experimental: S. scabiei S58, isolated from potatoes grown in Kagoshima, Japan, was used in this study. […] For antimicrobial assays, the spores of the isolate were incubated at 28 °C in tryptic soy broth (TSB) (Becton Dickinson, Sparks, USA). Escherichia coli strains JM109 and BL21(λDE3) were grown at 37 °C in Luria-Bertani broth supplemented with 100 μg/mL ampicillin for propagation.
A 12-well plate was used to assess the antimicrobial activity of LF, hydrolysate, LFcinB, and synthetic peptides. One milliliter of TSB containing each test substance was added to each well and then the spores of S. scabiei S58, prepared as described above, were added into each well at a final concentration of 2 × 10^5 spores/mL. The mixture was incubated at 28 °C for 72 h, and the absorbance was measured at 600 nm to monitor bacterial growth. To further confirm whether the antimicrobial activity is due to growth inhibition or bactericidal effect, 1 mL of TSB containing 2 ×10^3 spores and bLF (1 mg/mL) was incubated at 28 °C and directly cultured on STA after 5, 10, 15, 24, 48, and 72 h of incubation to count the emerging colonies. All assays were performed in duplicate and were repeated three times.

[1] = pH of the medium in which the substance was dissolved; type: physicochemical
Source text: On the contrary, in the assay of Trp alone at high concentrations, because Trp cannot bind to the cell surface by itself, only a few numbers could reach the membrane (Fig 8C). In summary, Trp must reach the cell membrane to exert its antimicrobial activity. We speculated that the change in the chemical structures and properties of Arg and Trp may affect their antimicrobial activity, that is, the ability to bind to the bacterial cell surface. Therefore, we used Arg and Trp derivatives, namely arginine hydrochloride, tryptophan methyl ester hydrochloride, and tryptophan ethyl ester hydrochloride, which are easily available. Intriguingly, arginine hydrochloride completely lost the antimicrobial activity against S. scabiei shown by Arg (Fig 7A and 7C). Sephai et al. (2017) reported that the antimicrobial activity of poly-arginine is influenced by pH; at mild acidic pH (5 and 6), its MIC values decreased. We measured the pH of the medium in which arginine or arginine hydrochloride was dissolved and found it to be 9.5 and 5.5, respectively. Streptomyces spp. can grow at pH values ranging from 4.0 to 11.5 [63]. Teichoic and lipoteichoic acids in gram-positive bacterial cell walls are esterified to D-Ala residues and at neutral or lower pH, the amino group of D-Ala (pKa 8.42) is protonated, conferring a neutral or positive charge to the cell walls. […]

[2] = spores 2 × 10^5/mL, TSB, 28 °C, 72 h, absorbance 600 nm
[3] = S. scabiei S58 spores 2 × 10^5/mL, TSB, 28 °C, 72 h, absorbance 600 nm, probit analysis, mean ± SD, n = 3, N/A = no antimicrobial activity, read-out: Antimicrobial activity (IC50)

Molecule N[C@@H](Cc1c[nH]c2ccccc12)C(=O)O [Tryptophan] has an inhibition at 40000 µM (Streptomyces scabiei S58; Streptomyces scabiei, S58, read-out: Inhibition of growth of S. scabiei) of 40%.
In the case of Cl.N=C(N)NCCC[C@H](N)C(=O)O [Arginine hydrochloride], the “pH of the medium in which the substance was dissolved” value [1] is reported as 5.5 and the “Antimicrobial activity, in words” value (Streptomyces scabiei S58; [2]) is reported as “complete loss of activity”.
Work on RRWQWR [RRWQWR] yielded an IC50 (Streptomyces scabiei S58; 72 h) of 0.048 ± 0.009 mM.
For COC(=O)[C@@H](N)Cc1c[nH]c2ccccc12.Cl [Tryptophan methyl ester hydrochloride], the IC50 (Streptomyces scabiei S58; [3]) was 2.86 ± 0.326 mM and the “Antimicrobial activity, in words” value (Streptomyces scabiei S58; [2]) was “much higher activity than that of tryptophan”.
With CCOC(=O)[C@@H](N)Cc1c[nH]c2ccccc12.Cl [Tryptophan ethyl ester hydrochloride] the IC50 (Streptomyces scabiei S58; [3]) was 1.303 ± 0.004 mM and the “Antimicrobial activity, in words” value (Streptomyces scabiei S58; [2]) was “much higher activity than that of tryptophan”.
With N=C(N)NCCC[C@H](N)C(=O)O [Arginine] the “pH of the medium in which the substance was dissolved” value [1] was 9.5, the IC50 (Streptomyces scabiei S58; Streptomyces scabiei, S58, 72 h, read-out: Antimicrobial activity (IC50)) was 14.3 ± 1.4 mM and the “Concentration necessary to completely inhibit the growth of S. scabiei” value (Streptomyces scabiei S58; [2]) was 40 mM.
With “QQWWWQ [Synthetic peptide containing three Trp residues and no Arg residue]” the “Antimicrobial activity, in words” value (Streptomyces scabiei S58; [2]) was “complete loss of activity”.
Molecule RRWWWR [RRWWWR] has an IC50 (Streptomyces scabiei S58; 72 h) of 0.027 ± 0.002 mM.
In the case of CC[C@H](C)[C@@H]1NC(=O)[C@H](CO)NC(=O)[C@@H]2CCCN2C(=O)[C@H](C)NC(=O)CNC(=O)[C@H](CC(C)C)NC(=O)[C@H](CCCCN)NC(=O)[C@H](CCCCN)NC(=O)[C@H](CCSC)NC(=O)[C@H](CCCNC(=N)N)NC(=O)[C@H](Cc2c[nH]c3ccccc23)NC(=O)[C@H](CCC(N)=O)NC(=O)[C@H](Cc2c[nH]c3ccccc23)NC(=O)[C@H](CCCNC(=N)N)NC(=O)[C@H](CCCNC(=N)N)NC(=O)[C@@H](NC(=O)[C@H](CCCCN)NC(=O)[C@@H](N)Cc2ccccc2)CSSC[C@@H](C(=O)N[C@H](C(=O)N[C@@H](CCCNC(=N)N)C(=O)N[C@@H](CCCNC(=N)N)C(=O)N[C@@H](C)C(=O)N[C@@H](Cc2ccccc2)C(=O)O)C(C)C)NC(=O)[C@H]([C@@H](C)O)NC1=O [Bovine lactoferricin (LFcinB)], the “Concentration at which no growth of S. scabiei was observed” value (Streptomyces scabiei S58; [2]) is reported as 3.2 µM.
In the case of “RRRQRR [Synthetic peptide containing no Trp residue]”, the “Antimicrobial activity, in words” value (Streptomyces scabiei S58; [2]) is reported as “completely lost its activity”.
